Like-named read-outs stand apart in the source and are kept apart here.
Columns and labels:
Assay in all cases: Kinase inhibitory activity profiling of RI-962@10 µM (406 kinases, Eurofins)
Type in all cases: biochemical
[1] = target: panel of human kinases (kinase named in endpoint) (Homo sapiens, UniProt P08069); settings: 10 µM
Summary of the method: (§1)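 Radiometric filter-binding kinase assays: enzyme preincubated 15 min with compound in 8 mM MOPS pH 7.0, 0.2 mM EDTA, 250 μM peptide substrate, 10 mM magnesium acetate, 10 μM [γ-33P]-ATP. Reaction started with Mg/ATP, run 40 min at room temperature, stopped with phosphoric acid; 33P incorporation read by scintillation counting. Other kinases by similar protocols.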

[2] = target: panel of human kinases (kinase named in endpoint) (Homo sapiens, UniProt Q9UKE5); settings: 10 µM; read-out: Activity (%), TNIK(h)
Summary of the method: as §1

[3] = target: panel of human kinases (kinase named in endpoint) (Homo sapiens, UniProt P33981); settings: 10 µM; read-out: Activity (%), TTK(h)
Summary of the method: as §1

[4] = target: panel of human kinases (kinase named in endpoint) (Homo sapiens, UniProt Q07002); settings: 10 µM; read-out: Activity (%), CDK18/cyclinY(h)
Summary of the method: as §1

[5] = target: panel of human kinases (kinase named in endpoint) (Homo sapiens, UniProt P07332); settings: 10 µM; read-out: Activity (%), Fes(h)
Summary of the method: as §1

[6] = target: panel of human kinases (kinase named in endpoint) (Homo sapiens, UniProt Q6IQ55); settings: 10 µM; read-out: Activity (%), TTBK2(h)
Summary of the method: as §1

[7] = target: panel of human kinases (kinase named in endpoint) (Homo sapiens, UniProt P08581, M1250T); settings: 10 µM; read-out: Activity (%), Met(M1268T)(h)
Summary of the method: as §1

[8] = target: panel of human kinases (kinase named in endpoint) (Homo sapiens, UniProt P16234, D842V); settings: 10 µM; read-out: Activity (%), PDGFRα(D842V)(h)
Chain of panel of human kinases (kinase named in endpoint) (Homo sapiens, UniProt P16234, D842V) (P16234 24-1089 D842V): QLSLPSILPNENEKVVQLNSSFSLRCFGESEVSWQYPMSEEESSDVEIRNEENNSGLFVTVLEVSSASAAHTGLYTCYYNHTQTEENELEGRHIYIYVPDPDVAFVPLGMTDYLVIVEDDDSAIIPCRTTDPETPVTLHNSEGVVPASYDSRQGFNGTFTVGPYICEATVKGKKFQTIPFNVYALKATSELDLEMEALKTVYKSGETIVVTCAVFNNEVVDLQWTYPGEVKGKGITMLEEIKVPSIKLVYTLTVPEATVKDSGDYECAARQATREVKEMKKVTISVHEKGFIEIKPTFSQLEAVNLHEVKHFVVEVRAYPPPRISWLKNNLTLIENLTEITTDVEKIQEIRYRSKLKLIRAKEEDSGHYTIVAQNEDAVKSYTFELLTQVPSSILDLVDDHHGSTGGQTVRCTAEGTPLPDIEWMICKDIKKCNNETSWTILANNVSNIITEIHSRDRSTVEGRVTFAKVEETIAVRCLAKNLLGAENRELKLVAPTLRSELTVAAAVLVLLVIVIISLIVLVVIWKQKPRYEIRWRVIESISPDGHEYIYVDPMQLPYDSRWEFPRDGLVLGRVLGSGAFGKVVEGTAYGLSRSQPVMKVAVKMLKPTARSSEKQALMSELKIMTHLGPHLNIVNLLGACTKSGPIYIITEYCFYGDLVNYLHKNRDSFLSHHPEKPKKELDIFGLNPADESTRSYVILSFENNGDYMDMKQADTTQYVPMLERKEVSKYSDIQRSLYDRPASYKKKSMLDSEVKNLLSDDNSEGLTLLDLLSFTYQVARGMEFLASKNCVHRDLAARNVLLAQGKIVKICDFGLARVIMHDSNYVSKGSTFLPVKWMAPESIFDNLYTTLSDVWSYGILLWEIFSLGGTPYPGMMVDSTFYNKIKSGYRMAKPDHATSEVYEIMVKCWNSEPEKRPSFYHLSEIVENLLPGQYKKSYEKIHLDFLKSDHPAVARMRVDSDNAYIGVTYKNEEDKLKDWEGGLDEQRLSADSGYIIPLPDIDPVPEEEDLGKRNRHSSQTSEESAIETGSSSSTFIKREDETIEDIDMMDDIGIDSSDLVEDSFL
Summary of the method: as §1

[9] = target: panel of human kinases (kinase named in endpoint) (Homo sapiens, UniProt P07947); settings: 10 µM; read-out: Activity (%), Yes(h)
Summary of the method: as §1

[10] = target: panel of human kinases (kinase named in endpoint) (Homo sapiens, UniProt P19784); settings: 10 µM; read-out: Activity (%), CK2α2(h)
Chain of panel of human kinases (kinase named in endpoint) (Homo sapiens, UniProt P19784) (P19784 whole entry): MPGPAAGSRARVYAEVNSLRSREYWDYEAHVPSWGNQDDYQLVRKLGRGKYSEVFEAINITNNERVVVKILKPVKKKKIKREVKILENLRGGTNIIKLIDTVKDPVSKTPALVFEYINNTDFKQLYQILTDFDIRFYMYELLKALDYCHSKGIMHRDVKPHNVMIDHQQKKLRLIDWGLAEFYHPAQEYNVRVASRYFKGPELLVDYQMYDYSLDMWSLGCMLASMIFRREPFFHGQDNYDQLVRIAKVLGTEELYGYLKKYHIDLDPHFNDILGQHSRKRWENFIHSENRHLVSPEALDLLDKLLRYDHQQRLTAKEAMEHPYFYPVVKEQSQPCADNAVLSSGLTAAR
Summary of the method: as §1

[11] = target: panel of human kinases (kinase named in endpoint) (Homo sapiens, UniProt Q86Z02); settings: 10 µM; read-out: Activity (%), HIPK1(h)
Summary of the method: as §1

[12] = target: panel of human kinases (kinase named in endpoint) (Homo sapiens, UniProt P07333); settings: 10 µM; read-out: Activity (%), Fms(h)
Chain of panel of human kinases (kinase named in endpoint) (Homo sapiens, UniProt P07333) (P07333 20-972): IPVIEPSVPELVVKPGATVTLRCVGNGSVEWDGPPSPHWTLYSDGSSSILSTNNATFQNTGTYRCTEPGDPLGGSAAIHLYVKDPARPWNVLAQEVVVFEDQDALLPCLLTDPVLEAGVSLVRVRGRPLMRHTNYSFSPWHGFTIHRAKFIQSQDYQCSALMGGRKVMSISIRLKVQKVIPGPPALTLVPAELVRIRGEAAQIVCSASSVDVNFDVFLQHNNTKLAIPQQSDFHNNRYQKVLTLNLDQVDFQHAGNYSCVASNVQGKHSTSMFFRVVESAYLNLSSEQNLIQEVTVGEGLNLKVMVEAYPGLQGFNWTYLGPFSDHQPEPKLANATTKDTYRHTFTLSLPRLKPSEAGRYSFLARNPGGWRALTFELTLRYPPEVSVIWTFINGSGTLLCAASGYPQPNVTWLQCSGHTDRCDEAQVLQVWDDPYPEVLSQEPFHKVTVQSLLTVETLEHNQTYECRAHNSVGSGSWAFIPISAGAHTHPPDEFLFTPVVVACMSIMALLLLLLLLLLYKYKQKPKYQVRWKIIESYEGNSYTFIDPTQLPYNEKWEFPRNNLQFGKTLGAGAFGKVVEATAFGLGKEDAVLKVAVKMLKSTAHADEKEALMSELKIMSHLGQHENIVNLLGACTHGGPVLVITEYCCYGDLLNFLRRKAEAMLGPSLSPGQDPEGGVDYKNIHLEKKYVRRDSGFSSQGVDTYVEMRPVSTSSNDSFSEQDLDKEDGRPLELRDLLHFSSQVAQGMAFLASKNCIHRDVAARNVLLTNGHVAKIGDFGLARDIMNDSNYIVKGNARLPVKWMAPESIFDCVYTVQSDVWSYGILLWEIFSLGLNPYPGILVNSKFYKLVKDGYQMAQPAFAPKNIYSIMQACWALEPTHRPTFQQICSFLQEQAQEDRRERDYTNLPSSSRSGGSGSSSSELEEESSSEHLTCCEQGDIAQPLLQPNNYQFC
Summary of the method: as §1

[13] = target: panel of human kinases (kinase named in endpoint) (Homo sapiens, UniProt Q9UPE1); settings: 10 µM; read-out: Activity (%), MSSK1(h)
Summary of the method: as §1

[14] = target: panel of human kinases (kinase named in endpoint) (Homo sapiens, UniProt P00519, H396P); settings: 10 µM; read-out: Activity (%), Abl (H396P) (h)
Summary of the method: as §1

[15] = target: panel of human kinases (kinase named in endpoint) (Homo sapiens, UniProt Q9P286); settings: 10 µM; read-out: Activity (%), PAK5(h)
Summary of the method: as §1

[16] = target: panel of human kinases (kinase named in endpoint) (Homo sapiens, UniProt Q06418); settings: 10 µM; read-out: Activity (%), Rse(h)
Summary of the method: as §1

[17] = target: panel of human kinases (kinase named in endpoint) (Homo sapiens, UniProt Q9UBE8); settings: 10 µM; read-out: Activity (%), NLK(h)
Summary of the method: as §1

[18] = target: panel of human kinases (kinase named in endpoint) (Homo sapiens, UniProt P49137); settings: 10 µM; read-out: Activity (%), MAPKAP-K2(h)
Summary of the method: as §1

[19] = target: panel of human kinases (kinase named in endpoint) (Homo sapiens, UniProt Q5S007); settings: 10 µM; read-out: Activity (%), LRRK2(h)
Summary of the method: as §1

[20] = target: panel of human kinases (kinase named in endpoint) (Homo sapiens, UniProt P29376); settings: 10 µM; read-out: Activity (%), LTK(h)
Chain of panel of human kinases (kinase named in endpoint) (Homo sapiens, UniProt P29376) (P29376 17-864): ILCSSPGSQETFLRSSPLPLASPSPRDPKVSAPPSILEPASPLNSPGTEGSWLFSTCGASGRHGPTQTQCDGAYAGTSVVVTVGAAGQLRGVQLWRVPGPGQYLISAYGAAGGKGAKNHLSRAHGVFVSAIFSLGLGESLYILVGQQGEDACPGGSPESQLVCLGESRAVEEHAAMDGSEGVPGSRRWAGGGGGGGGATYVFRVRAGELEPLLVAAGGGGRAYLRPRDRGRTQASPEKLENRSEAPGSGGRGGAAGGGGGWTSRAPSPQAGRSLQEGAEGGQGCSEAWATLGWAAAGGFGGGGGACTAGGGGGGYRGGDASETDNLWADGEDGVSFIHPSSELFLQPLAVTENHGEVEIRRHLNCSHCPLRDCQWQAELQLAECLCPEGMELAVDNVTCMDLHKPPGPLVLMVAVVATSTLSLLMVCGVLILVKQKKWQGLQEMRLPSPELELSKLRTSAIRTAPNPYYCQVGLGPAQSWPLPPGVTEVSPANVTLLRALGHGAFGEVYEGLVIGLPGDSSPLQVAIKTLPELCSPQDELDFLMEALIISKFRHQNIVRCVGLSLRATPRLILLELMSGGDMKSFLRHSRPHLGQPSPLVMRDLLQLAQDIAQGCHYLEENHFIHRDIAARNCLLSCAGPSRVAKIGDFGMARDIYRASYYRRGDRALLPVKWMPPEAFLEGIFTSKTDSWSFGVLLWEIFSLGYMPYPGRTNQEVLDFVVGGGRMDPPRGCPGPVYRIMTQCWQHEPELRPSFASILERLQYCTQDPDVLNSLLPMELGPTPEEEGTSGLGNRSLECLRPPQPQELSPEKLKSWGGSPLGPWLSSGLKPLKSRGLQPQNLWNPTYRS
Summary of the method: as §1

[21] = target: panel of human kinases (kinase named in endpoint) (Homo sapiens, UniProt Q96PN8); settings: 10 µM; read-out: Activity (%), TSSK3(h)
Chain of panel of human kinases (kinase named in endpoint) (Homo sapiens, UniProt Q96PN8) (Q96PN8 whole entry): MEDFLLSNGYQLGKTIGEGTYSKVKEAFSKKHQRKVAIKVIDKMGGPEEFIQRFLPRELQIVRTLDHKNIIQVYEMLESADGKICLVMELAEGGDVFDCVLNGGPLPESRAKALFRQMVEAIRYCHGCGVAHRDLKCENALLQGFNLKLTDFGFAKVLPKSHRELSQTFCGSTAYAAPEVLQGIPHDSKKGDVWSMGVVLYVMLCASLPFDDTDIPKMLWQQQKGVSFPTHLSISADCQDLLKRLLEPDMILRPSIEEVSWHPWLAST
Summary of the method: as §1

[22] = target: panel of human kinases (kinase named in endpoint) (Homo sapiens, UniProt P29323); settings: 10 µM; read-out: Activity (%), EphB2(h)
Summary of the method: as §1

[23] = target: panel of human kinases (kinase named in endpoint) (Homo sapiens, UniProt Q99759); settings: 10 µM; read-out: Activity (%), MEKK3(h)
Summary of the method: as §1

[24] = target: panel of human kinases (kinase named in endpoint) (Homo sapiens, UniProt P04626); settings: 10 µM; read-out: Activity (%), ErbB2(h)
Summary of the method: as §1

[25] = target: panel of human kinases (kinase named in endpoint) (Homo sapiens, UniProt Q09013); settings: 10 µM; read-out: Activity (%), DMPK(h)
Summary of the method: as §1

Chain of panel of human kinases (kinase named in endpoint) (Homo sapiens, UniProt P08069) (P08069 31-1367): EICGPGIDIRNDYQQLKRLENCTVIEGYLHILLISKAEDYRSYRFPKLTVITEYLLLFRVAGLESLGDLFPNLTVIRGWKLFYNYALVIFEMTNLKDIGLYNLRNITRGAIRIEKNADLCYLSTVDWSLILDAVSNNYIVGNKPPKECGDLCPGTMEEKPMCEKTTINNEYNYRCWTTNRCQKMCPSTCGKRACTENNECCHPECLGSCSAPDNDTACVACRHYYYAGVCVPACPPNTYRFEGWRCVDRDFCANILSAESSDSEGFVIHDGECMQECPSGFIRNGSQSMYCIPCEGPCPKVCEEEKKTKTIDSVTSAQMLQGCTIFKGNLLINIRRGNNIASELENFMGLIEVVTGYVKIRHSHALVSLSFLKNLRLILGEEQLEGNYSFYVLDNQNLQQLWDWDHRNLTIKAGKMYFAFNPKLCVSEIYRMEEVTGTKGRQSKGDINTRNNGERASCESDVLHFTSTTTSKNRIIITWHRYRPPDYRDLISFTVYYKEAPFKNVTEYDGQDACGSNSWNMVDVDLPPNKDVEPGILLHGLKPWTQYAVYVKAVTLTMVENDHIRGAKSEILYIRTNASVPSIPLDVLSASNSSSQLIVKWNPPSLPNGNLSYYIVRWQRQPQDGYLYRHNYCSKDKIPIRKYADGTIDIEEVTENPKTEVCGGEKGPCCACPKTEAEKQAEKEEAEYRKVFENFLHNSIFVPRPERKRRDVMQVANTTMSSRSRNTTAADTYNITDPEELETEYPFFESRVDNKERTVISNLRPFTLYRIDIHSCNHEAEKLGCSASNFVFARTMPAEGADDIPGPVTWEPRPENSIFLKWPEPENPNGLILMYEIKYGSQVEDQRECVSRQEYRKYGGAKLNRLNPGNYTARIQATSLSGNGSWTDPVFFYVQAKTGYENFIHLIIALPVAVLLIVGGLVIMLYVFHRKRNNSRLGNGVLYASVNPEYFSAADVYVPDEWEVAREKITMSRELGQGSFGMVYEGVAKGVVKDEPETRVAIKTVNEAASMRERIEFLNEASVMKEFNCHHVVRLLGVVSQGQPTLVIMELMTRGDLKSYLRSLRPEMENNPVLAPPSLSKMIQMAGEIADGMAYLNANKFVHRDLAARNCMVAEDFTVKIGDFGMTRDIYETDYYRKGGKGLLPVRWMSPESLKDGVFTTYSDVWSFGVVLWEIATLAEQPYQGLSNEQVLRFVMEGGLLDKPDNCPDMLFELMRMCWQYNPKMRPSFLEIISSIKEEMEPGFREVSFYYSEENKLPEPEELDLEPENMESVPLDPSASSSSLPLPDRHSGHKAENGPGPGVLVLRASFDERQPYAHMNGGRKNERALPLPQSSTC

Compound: CC(C)C(=O)Nc1nc2cc(-c3ccc4c(c3)c(C(=O)NC(C)c3ccccc3)cn4C)ccn2n1 (centres unmarked) [RI-962]
- activity at 10 µM ([1]; read-out: Activity (%), IGF-1R(h)): 94%
- activity at 10 µM ([1]; read-out: Activity (%), IGF-1R(h), activated): 92%
- activity at 10 µM [2]: 65%
- activity at 10 µM [3]: 92%
- activity at 10 µM [4]: 119%
- activity at 10 µM [5]: 99%
- activity at 10 µM [6]: 81%
- activity at 10 µM [7]: 115%
- activity at 10 µM [8]: 104%
- activity at 10 µM [9]: 97%
- activity at 10 µM [10]: 85%
- activity at 10 µM [11]: 103%
- activity at 10 µM [12]: 111%
- activity at 10 µM [13]: 85%
- activity at 10 µM [14]: 110%
- activity at 10 µM [15]: 93%
- activity at 10 µM [16]: 108%
- activity at 10 µM [17]: 93%
- activity at 10 µM [18]: 97%
- activity at 10 µM [19]: 102%
- activity at 10 µM [20]: 100%
- activity at 10 µM [21]: 94%
- activity at 10 µM [22]: 73%
- activity at 10 µM [23]: 93%
- activity at 10 µM [24]: 104%
- activity at 10 µM [25]: 89%

Reference: paper PMC9653409, “Generative deep learning enables the discovery of a potent and selective RIPK1 inhibitor” (Nature Communications, 2022)
